Data reported in ChEMBL document CHEMBL1125772, “Synthesis and receptor binding of enantiomeric N-substituted cis-N-[2-(3,4-dichlorophenyl)ethyl]-2-(1-pyrrolidinyl)cyclohexylamines as high-affinity sigma receptor ligands” (J Med Chem, 1991).

Biological target: Kappa-type opioid receptor (Cavia porcellus, UniProt P41144)
Assay: Compound was tested for the inhibitory concentration against opioid receptor kappa by using [3H]bremazocine as radioligand in guinea pig brain; No inhibition; call rule not given here

Kappa-type opioid receptor, sequence (P41144 whole entry): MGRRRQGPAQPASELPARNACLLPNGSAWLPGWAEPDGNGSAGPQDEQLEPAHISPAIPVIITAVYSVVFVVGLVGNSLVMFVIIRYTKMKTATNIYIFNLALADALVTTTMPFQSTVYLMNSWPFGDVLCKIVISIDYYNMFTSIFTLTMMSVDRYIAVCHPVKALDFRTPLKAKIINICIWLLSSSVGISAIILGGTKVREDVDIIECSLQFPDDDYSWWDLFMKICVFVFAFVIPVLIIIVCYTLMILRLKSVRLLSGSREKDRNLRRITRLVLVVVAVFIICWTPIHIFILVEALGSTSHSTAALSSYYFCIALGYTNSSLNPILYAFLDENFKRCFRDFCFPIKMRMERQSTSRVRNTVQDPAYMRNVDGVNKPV

Ki: Not Active
Structure (SMILES): Clc1ccc(CCN[C@@H]2CCCC[C@@H]2N2CCCC2)cc1Cl
